Patent publication US6562316B1, “Drug delivery system with two-step targeting” (priority 1997, dated 2003)

Settings: PEG-stabilized DSPC/Chol/PEG(2000)-DSPE liposome formulation (40 mg/ml total lipid, 12 mg/ml WSA1); buffer and serum; 48h incubation at 37° C.
Protocol: The liposomes are loaded by use of citric acid pH-gradient. Liposomes are prepared in 500 mM citrate buffer with pH 4.0 The external medium is titrated to pH 7.7 with sodium carbonate. WSA is thereafter added and allowed to load for 20 minutes at 60° C. The final formulation contains 40 mg/ml of total lipid and 12 mg/ml of WSA1 which corresponds to about 1×10^5 WSA, or 1×10^6 10 B, per liposome.

Substance: 1,8-diamino-4-N-3- [12-(N-9-acridinyl-3-aminopropyl)-p-carborane-1-yl] propyl-4-azooctane hydrogen chloride [WSA1]
- encapsulated WSA 1 released: less than 15%
